Measured values as given in patent US12630501B2, “Anti-fibrotic compounds and use thereof” (HADASIT MEDICAL RESEARCH SERVICES AND DEVELOPMENT LTD., priority 2019, dated 2026).

Key:
Ku70/FLIP complex = assay: Ku70 immunoprecipitation with FLIP immunoblot in IPF-lung myofibroblasts; assay type: cell-based, human; conditions: CMH 30 μM, 72 h
Method: Human lung myofibroblasts Differentiated fibroblasts from IPF-lungs and controls from patient lung biopsies performed for tumor diagnosis were obtained under a protocol detailed in Wallach-Dayan et al., J. Autoimmun. 59: 67-76, 2015. LL 97A (AlMy) (ATCC® CCL-191™)-IPF-lung, and LL 24 (ATCC® CCL-151™)-normal lung fibroblast cell lines were used.
Immunoprecipitation and immunoblotting Standard protocols were performed as described in Golan-Gerstl et al., Am. J. Respir. Cell Mol. Biol. 47: 271-279, 2012.
FLIP downregulation from an OD of 1.85 to 0.49 (about 3.5-fold) was detected in WB (FIG. 4F), and a […] from a mean fluorescence intensity (MFI)=10^3 to only 10^1 was detected with flow cytometry (FIG. 4G). Thus, SIRT1-mediated Ku70-deacetylation stabilizes IPF-lung myofibroblast FLIP via Ku70/FLIP complex. This effect of CMH on Ku70 further disrupts Ku70/FLIP complex and destabilizes FLIP in IPF-lung myofibroblasts.

IPF-lung myofibroblasts = assay: Anti-Fas mAb-mediated cell death of IPF-lung myofibroblasts (trypan blue, caspase-3 cleavage); assay type: cell-based, human
Method: Cell death and apoptosis Apoptosis was assessed with Annexin V affinity labeling, trypan blue exclusion, and caspase-3 cleavage in WB as described in Golan-Gerstl et al., Am. J. Respir. Cell Mol. Biol. 36: 270-275, 2007; Wallach-Dayan et al., PNAS USA 104: 20460-20465, 2007; and Wallach-Dayan et al., Am. J. Physiol. Lung Cell Mol. Physiol. 290: L790-L796, 2006.
Caspase-8 activation further targets effector caspase-3 and caspase-7, a parallel […] pathway, caspases 6 and 9, MAPKs, and Bim phosphorylations with binding cascades to Bax, Apaf-1, and caspase-9, allowing Bax-mediated cell death to be detected as well. Concomitantly, inhibitors of these processes, including FLIP, show negative interaction with FADD and with the inhibitors of apoptotic proteins (IAPs). […] In addition, CMH increased CH-11 anti-human Fas mAb-mediated IPF-myofibroblast cell death (24 h, 10 μM) above that produced by treatment with the vehicle alone (4% DMSO), as shown by microscope images (FIG. 5A) and trypan blue exclusion (FIG. 5A, quantification in inserts, and FIG. 5B, graphical representation), with 0.9-1×10^5 viable cells in control compared to only 0.3×10^5 cells following CMH. In fact, CMH-treated cells were 10 times more likely to undergo Fas-induced apoptosis (2.8 compared to 0.3), as determined by the OD of cleaved to uncleaved caspase-3 ratios (FIG. 5C). CMH therefore amplifies Fas signaling cascades above those induced by Fas alone. Thus, multiple intracellular anti-apoptotic signaling pathways mediated by SIRT1 and Ku70 were altered by CMH in vitro, which further enhanced Fas-apoptosis cascades.

IPF cell line ATCC191 = assay: Total cell-lysate pan-acetyl immunoblot; assay type: cell-based, human; conditions: CMH 30 μM; vehicle 0.62
Method: IPF cell line ATCC191 and Normal cell line ATCC151 (0.5×10^6, 191 and 151, respectively), were cultured (10% DMEM) and total cell acetylations was compared. IPF cell line ATCC191 were further exposed in culture (10% DMEM) to CMH (30 μM, vs. 4% DMSO (vehicle)). Total cell-lysate immunoblots with subsequent pan-acetyl in IPF-lung vs. normal-lung myofibroblasts (191 vs. 151) was measured (FIG. 7A). IPF-lung myofibroblasts treated with CMH were compared to control treatment with vehicle (FIG. 7B). […] Thus, CMH inhibits IPF cell proteins-deacetylation and normalized it.

[1] = tested on: BLM-treated C57BL/6 WT mice; conditions: prior finding restated; cited from earlier work
HDAC3 = HDAC3 (Homo sapiens, UniProt O15379); conditions: prostate cancer cells; cited from earlier work
HDAC8 = target: T1, HDAC8 (Homo sapiens, UniProt Q9BY41); conditions: prostate cancer cells; cited from earlier work
T1 sequence (Q9BY41 1-377): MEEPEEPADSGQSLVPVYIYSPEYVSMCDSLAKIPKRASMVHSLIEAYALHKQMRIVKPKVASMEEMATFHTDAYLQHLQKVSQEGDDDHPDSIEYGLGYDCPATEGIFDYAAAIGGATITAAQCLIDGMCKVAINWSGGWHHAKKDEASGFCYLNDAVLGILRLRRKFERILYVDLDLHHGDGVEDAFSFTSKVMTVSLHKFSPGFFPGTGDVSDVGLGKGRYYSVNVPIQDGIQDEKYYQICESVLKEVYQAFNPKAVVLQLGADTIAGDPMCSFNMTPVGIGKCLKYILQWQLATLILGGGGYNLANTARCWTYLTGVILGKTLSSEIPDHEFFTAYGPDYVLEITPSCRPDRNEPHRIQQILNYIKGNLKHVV

HDAC4 = HDAC4 (Homo sapiens, UniProt P56524); conditions: prostate cancer cells; cited from earlier work
HDACS = HDACS (Homo sapiens, UniProt Q9UQL6); conditions: prostate cancer cells; cited from earlier work
HDAC9 = HDAC9 (Homo sapiens, UniProt Q9UKV0); conditions: prostate cancer cells; cited from earlier work
[2] = cited from earlier work

HDAC9, sequence (Q9UKV0 whole entry, species assumed): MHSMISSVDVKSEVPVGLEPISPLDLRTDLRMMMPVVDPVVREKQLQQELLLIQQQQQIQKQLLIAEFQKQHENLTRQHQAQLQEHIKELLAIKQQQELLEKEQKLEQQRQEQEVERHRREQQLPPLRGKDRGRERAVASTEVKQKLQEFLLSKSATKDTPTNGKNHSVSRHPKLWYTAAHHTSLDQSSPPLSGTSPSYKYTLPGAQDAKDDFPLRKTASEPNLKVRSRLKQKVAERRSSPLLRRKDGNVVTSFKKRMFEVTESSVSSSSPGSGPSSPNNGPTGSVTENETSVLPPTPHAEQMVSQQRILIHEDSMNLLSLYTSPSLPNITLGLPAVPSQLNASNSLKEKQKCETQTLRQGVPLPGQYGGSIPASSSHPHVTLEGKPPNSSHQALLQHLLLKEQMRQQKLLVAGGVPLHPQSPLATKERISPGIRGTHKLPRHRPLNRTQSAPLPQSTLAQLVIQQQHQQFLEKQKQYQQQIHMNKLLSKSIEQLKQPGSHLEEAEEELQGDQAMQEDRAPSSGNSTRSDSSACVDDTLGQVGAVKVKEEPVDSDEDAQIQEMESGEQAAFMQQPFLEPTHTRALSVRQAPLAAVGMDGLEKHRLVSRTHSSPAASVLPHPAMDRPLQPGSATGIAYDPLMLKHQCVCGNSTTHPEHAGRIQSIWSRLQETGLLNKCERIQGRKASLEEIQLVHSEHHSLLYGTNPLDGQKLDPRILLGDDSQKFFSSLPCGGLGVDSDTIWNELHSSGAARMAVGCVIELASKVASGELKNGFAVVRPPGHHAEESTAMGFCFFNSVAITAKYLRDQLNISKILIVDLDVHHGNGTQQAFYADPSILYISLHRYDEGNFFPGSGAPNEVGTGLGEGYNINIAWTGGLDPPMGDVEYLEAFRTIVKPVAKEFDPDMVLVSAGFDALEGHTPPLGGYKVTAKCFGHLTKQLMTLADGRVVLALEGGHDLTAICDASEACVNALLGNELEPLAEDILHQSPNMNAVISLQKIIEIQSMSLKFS
HDAC3, sequence (O15379 whole entry, species assumed): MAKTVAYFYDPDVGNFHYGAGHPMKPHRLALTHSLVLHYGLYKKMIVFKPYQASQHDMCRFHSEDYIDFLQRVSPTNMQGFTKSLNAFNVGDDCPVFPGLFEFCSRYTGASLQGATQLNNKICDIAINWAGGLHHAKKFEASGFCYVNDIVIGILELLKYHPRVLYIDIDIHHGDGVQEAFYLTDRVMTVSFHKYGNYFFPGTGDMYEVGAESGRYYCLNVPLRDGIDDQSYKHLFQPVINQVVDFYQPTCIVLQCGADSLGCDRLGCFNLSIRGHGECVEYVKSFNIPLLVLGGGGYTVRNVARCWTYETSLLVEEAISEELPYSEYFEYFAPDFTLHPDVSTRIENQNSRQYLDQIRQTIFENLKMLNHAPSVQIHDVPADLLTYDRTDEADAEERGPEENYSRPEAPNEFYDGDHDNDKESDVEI
HDAC3, sequence (Q9Y618 395-489 partner limits assumed, species assumed): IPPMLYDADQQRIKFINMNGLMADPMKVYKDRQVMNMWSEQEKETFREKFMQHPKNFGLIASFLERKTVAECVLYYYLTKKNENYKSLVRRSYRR
HDACS, sequence (Q9UQL6 whole entry): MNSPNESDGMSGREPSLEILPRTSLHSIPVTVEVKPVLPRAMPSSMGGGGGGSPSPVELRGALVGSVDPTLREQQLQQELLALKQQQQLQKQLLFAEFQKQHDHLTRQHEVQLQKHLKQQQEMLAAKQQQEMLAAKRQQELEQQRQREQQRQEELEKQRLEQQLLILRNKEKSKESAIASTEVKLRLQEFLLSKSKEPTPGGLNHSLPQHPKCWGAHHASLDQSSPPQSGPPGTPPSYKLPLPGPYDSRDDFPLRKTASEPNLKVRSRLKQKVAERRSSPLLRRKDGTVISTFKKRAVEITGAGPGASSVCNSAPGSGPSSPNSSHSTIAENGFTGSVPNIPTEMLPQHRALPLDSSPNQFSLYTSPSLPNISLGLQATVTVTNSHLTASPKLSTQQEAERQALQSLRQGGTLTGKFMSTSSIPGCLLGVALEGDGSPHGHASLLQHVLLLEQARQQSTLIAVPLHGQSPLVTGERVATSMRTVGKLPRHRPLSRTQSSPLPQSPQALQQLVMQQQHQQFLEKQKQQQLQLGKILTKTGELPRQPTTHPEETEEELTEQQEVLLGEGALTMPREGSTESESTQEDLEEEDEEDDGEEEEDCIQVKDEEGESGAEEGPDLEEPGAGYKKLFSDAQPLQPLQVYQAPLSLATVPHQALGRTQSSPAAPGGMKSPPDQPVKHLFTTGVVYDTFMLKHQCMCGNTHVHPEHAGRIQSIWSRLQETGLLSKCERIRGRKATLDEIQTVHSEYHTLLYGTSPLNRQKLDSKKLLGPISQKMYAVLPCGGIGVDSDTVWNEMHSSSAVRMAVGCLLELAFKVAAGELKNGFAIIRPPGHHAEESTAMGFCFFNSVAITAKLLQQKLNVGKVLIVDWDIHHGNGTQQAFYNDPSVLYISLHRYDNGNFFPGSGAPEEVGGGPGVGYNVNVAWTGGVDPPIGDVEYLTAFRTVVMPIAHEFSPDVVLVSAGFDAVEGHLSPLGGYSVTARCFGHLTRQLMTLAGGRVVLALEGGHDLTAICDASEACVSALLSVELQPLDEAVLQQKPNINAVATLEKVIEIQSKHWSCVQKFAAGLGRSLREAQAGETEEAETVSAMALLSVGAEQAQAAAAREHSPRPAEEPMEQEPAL
HDAC4, sequence (P56524 whole entry, species assumed): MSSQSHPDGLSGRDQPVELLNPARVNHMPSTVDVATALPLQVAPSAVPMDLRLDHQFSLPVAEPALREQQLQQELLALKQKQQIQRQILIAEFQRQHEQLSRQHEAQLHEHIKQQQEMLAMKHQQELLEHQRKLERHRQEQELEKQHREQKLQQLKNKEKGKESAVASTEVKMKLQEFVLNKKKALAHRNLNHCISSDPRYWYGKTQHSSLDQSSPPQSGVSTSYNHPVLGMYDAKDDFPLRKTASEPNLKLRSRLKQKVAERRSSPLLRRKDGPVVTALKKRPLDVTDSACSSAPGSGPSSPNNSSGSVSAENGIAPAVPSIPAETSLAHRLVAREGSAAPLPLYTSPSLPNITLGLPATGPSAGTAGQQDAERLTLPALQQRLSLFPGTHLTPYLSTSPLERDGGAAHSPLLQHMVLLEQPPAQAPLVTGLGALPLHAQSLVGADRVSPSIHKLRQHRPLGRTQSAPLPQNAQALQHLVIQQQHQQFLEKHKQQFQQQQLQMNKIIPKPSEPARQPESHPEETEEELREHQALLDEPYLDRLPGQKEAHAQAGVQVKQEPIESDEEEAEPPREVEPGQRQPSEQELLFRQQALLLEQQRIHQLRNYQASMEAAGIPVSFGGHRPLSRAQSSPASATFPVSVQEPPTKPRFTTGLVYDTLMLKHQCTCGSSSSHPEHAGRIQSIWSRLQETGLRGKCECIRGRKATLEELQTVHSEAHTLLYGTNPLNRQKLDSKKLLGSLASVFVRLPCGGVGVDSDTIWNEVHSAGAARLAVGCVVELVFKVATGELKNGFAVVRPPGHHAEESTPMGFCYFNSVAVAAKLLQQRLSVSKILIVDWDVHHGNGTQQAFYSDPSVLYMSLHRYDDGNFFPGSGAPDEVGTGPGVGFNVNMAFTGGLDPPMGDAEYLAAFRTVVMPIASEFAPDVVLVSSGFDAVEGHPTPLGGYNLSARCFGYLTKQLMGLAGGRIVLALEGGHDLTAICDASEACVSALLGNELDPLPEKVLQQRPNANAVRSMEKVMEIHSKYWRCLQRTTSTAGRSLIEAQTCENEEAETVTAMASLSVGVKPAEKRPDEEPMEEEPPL

SMILES: Cc1cc(Cl)ccc1OCCCC(=O)NO [CMH, 4-(4-chloro-2-methylphenoxy)-N-hydroxybutanamide]
- Decrease of Ku70/FLIP complex (Ku70/FLIP complex): about 1.5 fold
- Ku70/FLIP complex in FLIP-IB (Ku70/FLIP complex; from 6.2): 4.1 OD
- Viable cells, trypan blue exclusion (IPF-lung myofibroblasts; CMH plus CH-11 anti-human Fas mAb (24 h, 10 μM), control 0.9-1×10^5): 0.3×10^5 cells
- OD of cleaved to uncleaved caspase-3 ratio (IPF-lung myofibroblasts; CMH plus anti-Fas mAb, vehicle 0.3): 2.8
- Likelihood to undergo Fas-induced apoptosis vs. vehicle (IPF-lung myofibroblasts; from cleaved to uncleaved caspase-3 ratios): 10 times
- Protein acetylation, optical density ratio to GAPDH (OD) in pan-acetyl immunoblots (IPF cell line ATCC191): 1.77 OD
- Lung fibrosis in in-vivo model, C57BL/6 mice lungs following bleomycin instillation [1]: attenuate lung fibrosis
- Inhibition of HDAC3 (HDAC3): Selective inhibition
- Inhibition of HDAC8 (HDAC8): Selective inhibition
- Inhibition of HDAC4 (HDAC4): not inhibited
- Inhibition of HDACS (HDACS): not inhibited
- Inhibition of HDAC9 (HDAC9): not inhibited
- Water solubility [2]: low
